Experimental data: ChEMBL document CHEMBL1201862, “PubChem BioAssay data set” (2004)
Values belong to the molecule of their own block, whether it stands above or below them. Active and inactive are the calls of the source.

What was measured:
Vero = experiment: Vero cell toxicity, dose response, cytotoxicity control, plate reader, cherry-pick samples (AID 687020); format: functional, cell-based; details: Chlorocebus sabaeus
[1] = biological target: T1, Heat shock factor protein 1 (Mus musculus, UniProt P38532); experiment: inhibition of MG132-induced HSE-luciferase signal, confirmation, cell-based, NIH3T3, luminescence, dose retest (AID 2382); format: functional;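 note: NIH3T3 fibroblasts with HSF1-driven luciferase reporter stressed by proteasome inhibitor MG132; luminescence from HSF1-driven luciferase expression after 8 hours of MG132 stress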
T1 sequence (P38532 whole entry): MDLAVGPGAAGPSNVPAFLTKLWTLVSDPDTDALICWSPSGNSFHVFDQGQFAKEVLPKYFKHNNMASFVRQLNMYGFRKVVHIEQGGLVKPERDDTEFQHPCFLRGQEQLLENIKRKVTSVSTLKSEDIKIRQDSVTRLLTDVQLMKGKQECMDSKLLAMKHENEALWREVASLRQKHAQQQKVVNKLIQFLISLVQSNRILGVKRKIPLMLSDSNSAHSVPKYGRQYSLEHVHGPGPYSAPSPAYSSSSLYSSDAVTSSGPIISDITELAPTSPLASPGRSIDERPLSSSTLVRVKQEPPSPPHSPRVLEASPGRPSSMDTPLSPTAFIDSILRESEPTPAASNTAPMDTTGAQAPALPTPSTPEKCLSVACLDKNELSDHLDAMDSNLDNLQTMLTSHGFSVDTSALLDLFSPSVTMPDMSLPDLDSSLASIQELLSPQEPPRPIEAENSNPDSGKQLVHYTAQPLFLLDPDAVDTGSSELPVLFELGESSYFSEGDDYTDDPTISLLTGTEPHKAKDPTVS

[2] = A375 melanoma cell cytotoxicity, dose response, counter-screen for MITF inhibitor project, CellTiter-Glo luminescence, dry powder, set 2 (AID 624489); format: functional, cell-based; details: A-375;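 note: actives are compounds lowering A375 viability meaning general cytotoxicity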
[3] = A375 melanoma cell viability loss, dose response, counter-screen for MITF inhibitor project, CellTiter-Glo luminescence, dry powder, set 4 (AID 624364); format: functional, cell-based; details: A-375;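 note: A375 melanoma cells are MITF independent so this is a counter screen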
[4] = biological target: 1-phosphatidylinositol 4,5-bisphosphate phosphodiesterase beta-3 (Homo sapiens, UniProt Q01970); experiment: Fluorescence-based biochemical high throughput dose response assay to identify inhibitors of phospholipase C isozymes (PLC-B3).
Chain of 1-phosphatidylinositol 4,5-bisphosphate phosphodiesterase beta-3 (Q01970 whole entry): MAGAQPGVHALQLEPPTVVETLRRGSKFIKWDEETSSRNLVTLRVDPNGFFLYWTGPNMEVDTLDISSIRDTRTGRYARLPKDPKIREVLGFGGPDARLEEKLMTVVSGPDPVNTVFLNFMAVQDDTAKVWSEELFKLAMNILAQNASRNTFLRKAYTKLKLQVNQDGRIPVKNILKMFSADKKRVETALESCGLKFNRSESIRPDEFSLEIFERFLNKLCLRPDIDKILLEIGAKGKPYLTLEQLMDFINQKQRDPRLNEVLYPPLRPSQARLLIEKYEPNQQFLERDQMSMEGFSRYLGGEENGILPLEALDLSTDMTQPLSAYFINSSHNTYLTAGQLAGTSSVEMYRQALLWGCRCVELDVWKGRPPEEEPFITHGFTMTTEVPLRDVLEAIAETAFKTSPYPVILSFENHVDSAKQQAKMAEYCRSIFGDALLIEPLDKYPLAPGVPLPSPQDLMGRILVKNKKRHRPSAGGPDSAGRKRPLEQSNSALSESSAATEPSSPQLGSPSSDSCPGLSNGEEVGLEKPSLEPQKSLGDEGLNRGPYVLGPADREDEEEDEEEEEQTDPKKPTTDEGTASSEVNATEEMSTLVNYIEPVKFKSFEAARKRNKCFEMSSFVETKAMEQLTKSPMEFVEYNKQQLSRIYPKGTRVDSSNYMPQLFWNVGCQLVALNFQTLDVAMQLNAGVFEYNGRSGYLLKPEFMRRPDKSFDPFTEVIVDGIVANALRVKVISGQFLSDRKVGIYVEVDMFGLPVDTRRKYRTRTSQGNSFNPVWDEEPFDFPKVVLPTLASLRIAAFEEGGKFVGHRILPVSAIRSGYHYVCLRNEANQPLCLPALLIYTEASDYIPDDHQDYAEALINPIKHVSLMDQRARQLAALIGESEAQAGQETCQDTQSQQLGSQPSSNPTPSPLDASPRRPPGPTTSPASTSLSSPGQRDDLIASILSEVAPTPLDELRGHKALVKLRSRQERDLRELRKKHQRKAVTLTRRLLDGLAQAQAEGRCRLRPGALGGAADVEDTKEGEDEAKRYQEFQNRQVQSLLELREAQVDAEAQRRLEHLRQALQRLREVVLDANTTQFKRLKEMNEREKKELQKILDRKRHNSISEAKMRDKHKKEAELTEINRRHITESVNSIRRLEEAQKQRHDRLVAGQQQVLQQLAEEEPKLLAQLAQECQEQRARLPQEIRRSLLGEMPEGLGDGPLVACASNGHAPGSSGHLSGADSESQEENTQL

[5] = biological target: 1-phosphatidylinositol 4,5-bisphosphate phosphodiesterase gamma-1 (Homo sapiens, UniProt P19174); experiment: Counterscreen for inhibitors of phospholipase C isozymes (PLC-B3): Fluorescence-based biochemical high throughput dose response assay to identify inhibitors of phospholipase C isozymes (PLC-gamma1).
Chain of 1-phosphatidylinositol 4,5-bisphosphate phosphodiesterase gamma-1 (P19174 whole entry): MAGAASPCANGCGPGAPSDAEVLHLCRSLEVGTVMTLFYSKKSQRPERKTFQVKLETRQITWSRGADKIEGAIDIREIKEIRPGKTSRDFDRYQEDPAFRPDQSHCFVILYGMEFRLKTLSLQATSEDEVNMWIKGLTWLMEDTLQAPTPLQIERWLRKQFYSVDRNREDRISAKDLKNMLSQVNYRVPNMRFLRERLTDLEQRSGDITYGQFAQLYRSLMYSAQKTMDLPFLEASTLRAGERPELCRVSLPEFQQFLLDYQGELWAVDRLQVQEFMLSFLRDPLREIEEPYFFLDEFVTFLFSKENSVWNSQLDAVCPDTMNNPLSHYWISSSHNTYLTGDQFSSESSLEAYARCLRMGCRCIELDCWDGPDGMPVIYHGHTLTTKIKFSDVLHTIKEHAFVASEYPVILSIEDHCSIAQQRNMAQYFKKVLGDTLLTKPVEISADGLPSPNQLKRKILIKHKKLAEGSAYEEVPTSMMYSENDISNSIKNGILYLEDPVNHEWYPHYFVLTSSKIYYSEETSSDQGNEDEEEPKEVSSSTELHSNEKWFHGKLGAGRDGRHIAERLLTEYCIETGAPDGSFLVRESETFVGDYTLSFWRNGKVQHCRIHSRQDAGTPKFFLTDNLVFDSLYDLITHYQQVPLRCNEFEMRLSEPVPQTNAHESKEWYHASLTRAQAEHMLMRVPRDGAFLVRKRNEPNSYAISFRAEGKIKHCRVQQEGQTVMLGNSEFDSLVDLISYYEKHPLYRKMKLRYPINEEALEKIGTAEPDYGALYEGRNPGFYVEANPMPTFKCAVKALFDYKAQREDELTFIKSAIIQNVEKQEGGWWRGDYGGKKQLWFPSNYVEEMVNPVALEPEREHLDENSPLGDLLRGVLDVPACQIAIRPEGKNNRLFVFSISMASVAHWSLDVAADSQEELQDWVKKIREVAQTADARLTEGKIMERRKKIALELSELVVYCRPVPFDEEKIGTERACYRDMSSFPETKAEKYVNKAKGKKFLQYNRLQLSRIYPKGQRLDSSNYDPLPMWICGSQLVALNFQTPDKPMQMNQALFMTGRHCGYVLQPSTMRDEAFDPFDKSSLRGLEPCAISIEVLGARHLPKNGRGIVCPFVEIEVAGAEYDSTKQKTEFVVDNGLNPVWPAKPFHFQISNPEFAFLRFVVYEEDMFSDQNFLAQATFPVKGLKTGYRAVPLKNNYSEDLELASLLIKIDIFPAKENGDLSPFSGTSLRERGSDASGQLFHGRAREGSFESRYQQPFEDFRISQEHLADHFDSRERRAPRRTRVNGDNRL

[6] = LGR2 antagonists, dose response, cell-based, HEK293, CRE-luciferase reporter, cherry pick, set 2 (AID 743343); format: functional;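 note: transfected cells were stimulated with diluted bursicon conditioned medium after compound addition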
[7] = MC4R antagonists, dose response, counter-screen for LGR2 antagonist project, cell-based, plate reader, cherry pick (AID 743444); format: functional;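 note: transfected HEK 293 cells stimulated with alpha-MSH peptide; potency of inhibitors of the alpha-MSH evoked signal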
[8] = A549 cell cytotoxicity, dose response, cytotoxicity control, plate reader, cherry-pick, antagonist series (AID 743412); format: functional, cell-based
[9] = HEK293 cell cytotoxicity, dose response, cytotoxicity control, plate reader, cherry-picked samples (AID 743446); format: functional, cell-based
[10] = HepG2 cell cytotoxicity, dose response, cytotoxicity control, plate reader, cherry-pick, antagonist series (AID 743416); format: functional, cell-based
[11] = cytotoxicity in OVCAR8 ovarian cancer cells, dose response, PAX8 project, cell-based, plate reader, dry powder samples (AID 743197); format: functional; details: OVCAR-8
[12] = P. falciparum Dd2 growth inhibitors, dose response, SYBR Green, cherry-picked samples (AID 1159567); format: functional, cell-based
[13] = IGROV1 ovarian cancer cell cytotoxicity, dose response, PAX8 inhibitor project, plate reader, dry powder samples (AID 743043); format: functional, cell-based; details: IGROV-1
[14] = HepG2 cell cytotoxicity, dose response, cytotoxicity control, cherry-picked samples (AID 1159577); format: functional, cell-based
Paired box protein Pax-8 = Paired box protein Pax-8 (Homo sapiens, UniProt Q06710); experiment: inhibitors of PAX8-driven TPO luciferase reporter, dose response, RMG-I cells, cherry-pick (AID 687027); format: functional, cell-based;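 note: luciferase reporter driven by Pax8 target thyroperoxidase promoter measured by SteadyGlo luminescence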
Chain of Paired box protein Pax-8 (Q06710 whole entry): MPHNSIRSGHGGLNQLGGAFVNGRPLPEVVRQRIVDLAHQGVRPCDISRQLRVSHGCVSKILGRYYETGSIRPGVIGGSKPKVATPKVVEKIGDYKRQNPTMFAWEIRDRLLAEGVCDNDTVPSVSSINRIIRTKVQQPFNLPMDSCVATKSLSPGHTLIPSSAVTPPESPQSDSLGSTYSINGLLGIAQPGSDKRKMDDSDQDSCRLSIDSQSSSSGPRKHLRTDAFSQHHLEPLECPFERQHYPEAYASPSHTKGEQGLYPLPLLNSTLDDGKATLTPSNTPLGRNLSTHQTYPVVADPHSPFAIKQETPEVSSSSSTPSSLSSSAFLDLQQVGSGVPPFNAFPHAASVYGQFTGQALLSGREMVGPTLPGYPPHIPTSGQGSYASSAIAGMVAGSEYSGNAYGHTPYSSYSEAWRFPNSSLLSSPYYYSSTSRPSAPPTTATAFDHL

[15] = NIH:OVCAR-3 ovarian cancer cell cytotoxicity, dose response, PAX8 inhibitor project, plate reader, dry powder samples (AID 743044); format: functional, cell-based
[16] = non-specific cell cytotoxicity, dose response, cytotoxicity control for PAX8 inhibitor project, plate reader, dry powder samples (AID 743021); format: functional, cell-based
[17] = IOSE-T80 ovarian epithelial cell cytotoxicity, dose response, cytotoxicity control for PAX8 inhibitor project, plate reader, dry powder samples (AID 743045); format: functional, cell-based
[18] = A2780 ovarian cancer cell cytotoxicity, dose response, cytotoxicity control, plate reader, dry powder samples (AID 743046); format: functional, cell-based
[19] = Shn3 3'UTR reporter inhibitors, dose response, cell-based, Clone20 osteoblasts, firefly luciferase, cherry-picked (AID 624132); format: functional;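 note: firefly luciferase luminescence from reporter carrying the Shn3 3'UTR in osteoblasts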
[20] = ADAM10 inhibitors, peptide cleavage, dose response, biochemical, QFRET (AID 743254);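 note: ADAM10 enzyme with the DM2 quenched FRET peptide as substrate; EDANS fluorescence gain as the protease cuts the substrate; inhibitor potency against ADAM10 proteolytic activity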
[21] = control 3'UTR Renilla luciferase suppression, dose response, counter-screen for Shn3 inhibitor project, cell-based, Clone20-Shn3RL, cherry-picked (AID 624133); format: functional
[22] = biological target: Disintegrin and metalloproteinase domain-containing protein 17 (Homo sapiens, UniProt P78536); experiment: ADAM17 protease inhibitors, dose response, counter-screen for ADAM10 exosite inhibitor project, biochemical, quenched FRET substrate (AID 743253)
Chain of Disintegrin and metalloproteinase domain-containing protein 17 (P78536 whole entry, the tested form may be a part): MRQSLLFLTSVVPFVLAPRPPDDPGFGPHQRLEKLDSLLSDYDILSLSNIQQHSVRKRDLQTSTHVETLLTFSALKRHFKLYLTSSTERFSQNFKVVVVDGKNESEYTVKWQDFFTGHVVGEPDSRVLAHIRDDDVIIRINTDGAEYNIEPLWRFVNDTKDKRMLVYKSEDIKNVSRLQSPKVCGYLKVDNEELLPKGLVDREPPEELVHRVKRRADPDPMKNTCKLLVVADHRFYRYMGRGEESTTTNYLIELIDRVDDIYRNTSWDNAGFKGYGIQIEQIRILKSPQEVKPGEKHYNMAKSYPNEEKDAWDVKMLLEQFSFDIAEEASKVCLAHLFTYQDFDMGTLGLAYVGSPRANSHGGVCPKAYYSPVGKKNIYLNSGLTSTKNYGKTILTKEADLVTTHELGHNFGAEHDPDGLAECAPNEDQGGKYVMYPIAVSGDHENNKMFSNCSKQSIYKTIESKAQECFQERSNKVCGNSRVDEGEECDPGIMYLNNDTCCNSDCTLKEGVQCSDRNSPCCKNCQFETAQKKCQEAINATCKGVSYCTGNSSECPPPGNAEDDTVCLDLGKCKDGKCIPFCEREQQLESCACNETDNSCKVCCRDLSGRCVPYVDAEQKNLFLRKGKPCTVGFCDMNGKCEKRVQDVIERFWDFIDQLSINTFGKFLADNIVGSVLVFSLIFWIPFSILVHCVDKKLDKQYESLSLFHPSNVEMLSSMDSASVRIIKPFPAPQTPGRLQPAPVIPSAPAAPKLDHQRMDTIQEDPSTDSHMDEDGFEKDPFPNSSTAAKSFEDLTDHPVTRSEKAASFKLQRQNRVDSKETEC

[23] = biological target: T2, Sentrin-specific protease 1 (Homo sapiens, UniProt Q9P0U3); experiment: Dose response confirmation of small molecule inhibitors of the catalytic domain of the SUMO protease, SENP1 in a FRET assay.; format: functional; details: read-out: IC50_Mean
T2 sequence (Q9P0U3 whole entry): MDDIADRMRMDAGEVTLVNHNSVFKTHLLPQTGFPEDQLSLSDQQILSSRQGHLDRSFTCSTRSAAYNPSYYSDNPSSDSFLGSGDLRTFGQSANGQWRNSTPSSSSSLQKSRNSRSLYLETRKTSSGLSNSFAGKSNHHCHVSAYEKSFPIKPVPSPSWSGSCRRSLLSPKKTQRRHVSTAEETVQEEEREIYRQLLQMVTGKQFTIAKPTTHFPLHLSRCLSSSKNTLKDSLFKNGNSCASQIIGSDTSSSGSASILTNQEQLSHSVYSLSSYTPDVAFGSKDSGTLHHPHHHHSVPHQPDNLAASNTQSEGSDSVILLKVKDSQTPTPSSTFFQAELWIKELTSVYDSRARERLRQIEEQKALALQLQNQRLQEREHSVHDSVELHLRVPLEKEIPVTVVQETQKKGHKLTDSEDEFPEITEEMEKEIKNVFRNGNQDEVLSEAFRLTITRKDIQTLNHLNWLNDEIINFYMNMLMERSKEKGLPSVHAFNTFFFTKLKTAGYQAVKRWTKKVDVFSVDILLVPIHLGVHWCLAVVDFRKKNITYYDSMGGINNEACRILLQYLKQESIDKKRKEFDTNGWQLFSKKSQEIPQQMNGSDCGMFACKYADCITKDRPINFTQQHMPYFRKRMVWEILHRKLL

[24] = off-target signal loss in HeLa-CEM21 co-culture – HeLa F-luc CTL cells, cherry-picked, counter-screen for HIV-1 Env fusion inhibitor project, dose response (AID 652040); format: functional, cell-based;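 note: potency for signal decrease marking cytotoxic or nonspecific inhibition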
[25] = ZM109 Env clade C HIV-1 fusion inhibitors, dose response, HeLa effector, CEM target cells, luciferase, cherry-pick (AID 652058); format: functional, cell-based
[26] = biological target: T2, Sentrin-specific protease 1; experiment: potency of human SENP1 inhibitors, dose response, biochemical, kinetic FRET (AID 651697); format: functional; details: read-out: IC50_Mean
[27] = biological target: Dual specificity tyrosine-phosphorylation-regulated kinase 1A (Rattus norvegicus, UniProt Q63470); format: biochemical, Homo sapiens

Compound: CC1(C)CC(NC(=O)COc2ccccc2Cl)CC(C)(C)N1
AC50 (Vero): 33.7 µM (active)
EC50 [1]: 2.65 µM (active)

Compound: COc1ccc(C(=O)NC2=C(c3ccc(OC(F)(F)F)cc3)C(=O)c3ccccc3C2=O)cc1
AC50 [2]: 23.4 µM (active)
AC50 [3]: 41 µM (active)

IC50 [4]: > 122 µM (inactive)
IC50 [5]: > 4.54 µM (active)
Compound: CC(=O)N1C[C@@H](c2c[nH]c3ccccc23)C=C[C@H]1C(=O)NS(=O)(=O)c1ccc(C)cc1

Compound: CCCCc1c(-c2cccc(OC)c2)ncn1CCc1ccccc1OC
AC50 [6]: 16.3 µM (active)
AC50 [7]: 12.9 µM (active)
AC50 [8]: 19.2 µM (active)
AC50 [9]: 29 µM (active)
AC50 [10]: 15.1 µM (active)

Compound: C(=C\c1ccc([C@H]2[C@@H]3CN(Cc4ccc5c(c4)OCO5)C[C@H]2N3)cc1)/c1ccccc1
AC50 [11]: 35.1 µM (active)
AC50 [12]: 2.83 µM (active)
AC50 [13]: 18.8 µM (active)
AC50 [14]: 8.83 µM (active)
AC50 (Paired box protein Pax-8): 20.2 µM (active)
AC50 [15]: 17.6 µM (active)
AC50 [16]: 31.7 µM (active)
AC50 [17]: 32.4 µM (active)
AC50 [18]: 12 µM (active)

Compound: C=CCC[C@H](Cc1ccc(F)cc1)C(=O)OC[C@H](Cc1c[nH]c2ccccc12)NC(=O)[C@H](CC=C)CC(=O)N(CCO)Cc1ccccc1
AC50 [19]: 11.7 µM (active)
IC50 [20]: 6.93 µM (active)
AC50 (Paired box protein Pax-8): 12.9 µM (active)
AC50 [21]: 20.1 µM (active)
IC50 [22]: > 69.5 µM (inactive)

IC50 [20]: > 69.5 µM (inactive)
IC50 [22]: > 69.5 µM (inactive)
Compound: CCOc1ccc(/C=N/NC(=O)Cc2csc(Nc3cccc(C(F)(F)F)c3)n2)c(OCC)c1

Compound: CCCCn1nnnc1C(CCc1ccccc1)N1CCC(n2c(O)nc3ccccc32)CC1 (configuration not stated)
AC50 [6]: 20.1 µM (active)
AC50 [7]: 7.55 µM (active)
AC50 [8]: 19 µM (active)
AC50 [9]: 19.8 µM (active)
AC50 [10]: > 52 µM (inactive)

Compound: Cc1ccc2c(c1)C(=C(C#N)C#N)CCN2
IC50 [23]: 11 µM (active)
AC50 [24]: 42.3 µM (active)
AC50 [25]: 2 µM (active)
IC50 [26]: 20.1 µM (inactive)
AC50 [27]: 5.69 µM (active)
